From patent publication US8431596B2 (Cancer Research Technology Limited, priority 2007, dated 2013)

Biological target: T1, AXL (human catalytic domain) (Homo sapiens, UniProt P30530)
T1 construct: purchased Upstate Ltd. 14-512
T1 sequence (P30530 473-894): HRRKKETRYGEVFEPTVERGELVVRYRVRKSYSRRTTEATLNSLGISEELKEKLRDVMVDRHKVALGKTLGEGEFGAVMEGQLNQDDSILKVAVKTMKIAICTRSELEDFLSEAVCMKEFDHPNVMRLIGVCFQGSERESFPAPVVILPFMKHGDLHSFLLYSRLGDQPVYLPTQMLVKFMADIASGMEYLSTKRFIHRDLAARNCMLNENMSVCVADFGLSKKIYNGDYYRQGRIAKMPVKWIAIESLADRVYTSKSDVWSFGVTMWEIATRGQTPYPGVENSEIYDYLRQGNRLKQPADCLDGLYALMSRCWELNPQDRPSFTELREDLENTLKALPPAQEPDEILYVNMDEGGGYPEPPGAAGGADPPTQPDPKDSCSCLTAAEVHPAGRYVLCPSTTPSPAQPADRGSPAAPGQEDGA
Assay: AXL (human catalytic domain) Enzyme Activity Assay (IMAP fluorescence polarisation)
Assay type: biochemical
Summary of the method: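 Recombinant human AXL isoform 1 (aa473-894; final 15 nM) phosphorylated 100 nM fluorescein-CSK-tide with 150 μM ATP (KM) in HEPES pH 7.0/MgCl2/DTT buffer for 60 min at room temperature. IMAP fluorescence polarisation read after overnight binding; IC50 from 10-point 4-parameter logistic fits.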

[1] = further data set (WW-001 through WW-169, XX-001 through XX-469, YY-001 through YY-016, ZZ-001 through ZZ-003), 150 μM ATP
[2] = first data set, recombinant AXL isoform 1 aa473-894, 150 μM ATP

| IC50 [1] [nM] | IC50 [2] [nM] | SMILES |
| --- | --- | --- |
| 1000 to 10000 | – | FC1(F)CCN(CCOc2ccc(Nc3nc4cccc(-c5ccc6c(c5)OCCO6)n4n3)cc2)C1 [XX-158] |
| 1000 to 10000 | – | CC(C)Oc1cccc(-c2cccc3nc(Nc4ccc(OCCN5CCCC5)cc4)nn23)c1 [XX-331] |
| 1000 to 10000 | – | Cn1nc(COc2cccc(-c3cccc4nc(Nc5ccc(OCCN6CCCC6)cc5)nn34)c2)cc1-c1ccccc1 [XX-459] |
| ≤ 100 | < 1000 | CN1CCN(CCOc2ccc(Nc3nc4cccc(-c5ccc6c(c5)OCCO6)n4n3)cc2)CC1 [XX-077] |
| 100 to 1000 | – | C=Cn1cc(-c2cccc3nc(Nc4ccc(OCCN5CCCC5)cc4)nn23)cn1 [XX-328] |
| 1000 to 10000 | – | Cc1ccc(-c2cccc(-c3cccc4nc(Nc5ccc(OCCN6CCCC6)cc5)nn34)c2)cc1 [XX-465] |
| 100 to 1000 | – | c1ccc2oc(-c3cccc4nc(Nc5ccc(OCCN6CCCC6)cc5)nn34)cc2c1 [XX-293] |
| ≤ 100 | – | c1cc(NCCCN2CCCCC2)cc(Nc2nc3cccc(-c4ccc5c(c4)OCCO5)n3n2)c1 [XX-131] |
| 100 to 1000 | – | CC(C)NC(=O)NCc1cccc(-c2cccc3nc(Nc4ccc(OCCN5CCCC5)cc4)nn23)c1 [XX-373] |
| ≤ 100 | < 1000 | CN(C)CCOc1ccc(Nc2nc3cccc(-c4ccc5c(c4)OCCO5)n3n2)cc1 [XX-055] |
| 100 to 1000 | – | COc1cccc(COc2cccc(-c3cccc4nc(Nc5ccc(OCCN6CCCC6)cc5)nn34)c2)c1 [XX-335] |
| 100 to 1000 | – | O=C(Nc1cccc(-c2cccc3nc(Nc4ccc(OCCN5CCCC5)cc4)nn23)c1)C1CC1 [XX-178] |
| 1000 to 10000 | 1000 to 10000 | COc1ccc(-c2cccc3nc(Nc4cccc(N)c4)nn23)cc1 [XX-061, N-[5-(4-Methoxy-phenyl)-[1,2,4]triazolo[1,5-a]pyridin-2-yl]-benzene-1,3-diamine] |
| 100 to 1000 | – | Cn1nccc1-c1cccc(-c2cccc3nc(Nc4ccc(OCCN5CCCC5)cc4)nn23)c1 [XX-169] |
| 1000 to 10000 | – | NC(=O)COc1cccc(-c2cccc3nc(Nc4ccc(OCCN5CCCC5)cc4)nn23)c1 [XX-404] |
| 1000 to 10000 | 1000 to 10000 | O=C(Nc1nc2cccc(Nc3cccc(Cl)c3)n2n1)C1CC1 [WW-129] |
| 1000 to 10000 | 1000 to 10000 | COc1ccc(-c2cccc3nc(NC(=O)C4CCC4)nn23)cc1 [WW-042] |
| 1000 to 10000 | 1000 to 10000 | COc1ccc(-c2cccc3nc(Nc4ccc5c(c4)OCCCO5)nn23)cc1 [XX-062] |
| 100 to 1000 | – | Cc1ccc(CNc2ccc(-c3cccc4nc(Nc5ccc(OCCN6CCCC6)cc5)nn34)cc2)cc1 [XX-267] |
| 100 to 1000 | – | c1cc(-c2ccc3c(c2)OCCO3)n2nc(Nc3ccc(NCCCN4CCCCC4)cc3)nc2c1 [XX-129] |
| 100 to 1000 | – | c1cc(-c2cn[nH]c2)n2nc(Nc3ccc(OCCN4CCCC4)cc3)nc2c1 [XX-202, [5-(1H-Pyrazol-4-yl)-[1,2,4]triazolo[1,5-a]pyridin-2-yl]-[4-(2-pyrrolidin-1-yl-ethoxy)-phenyl]-amine] |
| 1000 to 10000 | – | c1cc(-c2cnn(CCN3CCOCC3)c2)n2nc(Nc3ccc(OCCN4CCCC4)cc3)nc2c1 [XX-272] |
| 1000 to 10000 | – | Cn1nnnc1SCCn1cc(-c2cccc3nc(Nc4ccc(OCCN5CCCC5)cc4)nn23)cn1 [XX-428] |

| IC50 [1] [nM] | IC50 [2] [nM] | SMILES |
| --- | --- | --- |
| 100 to 1000 | – | O=C(Cn1cc(-c2cccc3nc(Nc4ccc(OCCN5CCCC5)cc4)nn23)cn1)Nc1cccc(Cl)c1 [XX-435] |
| 1000 to 10000 | – | CC(C(=O)Nc1cccc(-c2cccc3nc(Nc4ccc(OCCN5CCCC5)cc4)nn23)c1)c1cccc(Cl)c1 (stereo not shown) [XX-228] |
| 1000 to 10000 | 1000 to 10000 | CN(C)c1cccc(-c2cccc3nc(NC(=O)C4CC4)nn23)c1 [WW-071] |
| 1000 to 10000 | 1000 to 10000 | COc1cccc(Nc2cccc3nc(NC(=O)C4CC4)nn23)c1 [WW-160] |
| 1000 to 10000 | 1000 to 10000 | Cc1c(-c2cccc3nc(NC(=O)C4CC4)nn23)cnn1-c1ccccc1 [WW-148] |
| 100 to 1000 | 1000 to 10000 | COc1ccc(-c2cccc3nc(NCC4CC4)nn23)cc1 [XX-003, Cyclopropylmethyl-[5-(4-methoxy-phenyl)-[1,2,4]triazolo[1,5-a]pyridin-2-yl]-amine] |
| 100 to 1000 | – | Clc1ccccc1Cn1cc(-c2cccc3nc(Nc4ccc(OCCN5CCCC5)cc4)nn23)cn1 [XX-354] |
| 1000 to 10000 | 1000 to 10000 | CC(C)(C)CNc1cccc2nc(NC(=O)C3CC3)nn12 [WW-080] |
| ≤ 100 | < 1000 | NCc1cc2cc(Nc3nc4cccc(-c5ccc6c(c5)OCCO6)n4n3)ccc2o1 [XX-068] |
| 100 to 1000 | – | Cc1ccc2sc(-c3cccc4nc(Nc5ccc(OCCN6CCCC6)cc5)nn34)cc2c1 [XX-214] |
| 1000 to 10000 | – | CNC(=O)c1ccc(-c2cccc3nc(Nc4ccc(OCCN5CCCC5)cc4)nn23)cc1 [XX-269] |
| 1000 to 10000 | 1000 to 10000 | COc1ccc(-c2cccc3nc(NC(C)=O)nn23)cc1 [WW-039] |
| 1000 to 10000 | 1000 to 10000 | C#CCOc1ccc(-c2cccc3nc(NC(=O)C4CC4)nn23)cc1 [WW-122] |
| 1000 to 10000 | < 1000 | COc1ccc(-c2cccc3nc(Nc4ccc(OCCN5CCCC5)cc4)nn23)cc1 [XX-004] |
| 1000 to 10000 | – | O=C(CSc1ccc(Nc2nc3cccc(-c4ccc5c(c4)OCCO5)n3n2)cc1)N1CCCC1 [XX-160] |
| ≤ 100 | – | CC(CNc1ccc(Nc2nc3cccc(-c4ccc5c(c4)OCCO5)n3n2)cc1)N1CCCC1 (stereo not shown) [XX-139] |
| 1000 to 10000 | – | CCOc1ccc(-c2nccc3nc(Nc4cccc(OCCN(CC)CC)c4)nn23)cc1 [YY-005] |
| 100 to 1000 | – | FC(F)(F)Oc1cccc(Cn2cc(-c3cccc4nc(Nc5ccc(OCCN6CCCC6)cc5)nn34)cn2)c1 [XX-366] |
| ≤ 100 | < 1000 | CN(C)CCNC(=O)c1cccc(Nc2nc3cccc(-c4ccc5occc5c4)n3n2)c1 [XX-085] |
| 1000 to 10000 | – | COc1ncc(-c2cccc3nc(Nc4ccc(OCCN5CCCC5)cc4)nn23)cn1 [XX-197] |
| 100 to 1000 | – | O=C(c1cccc(-c2cccc3nc(Nc4ccc(OCCN5CCCC5)cc4)nn23)c1)c1ccc2c(c1)OCO2 [XX-310, Benzo[1,3]dioxol-5-yl-(3-{2-[4-(2-pyrrolidin-1-yl-ethoxy)-phenylamino]-[1,2,4]triazolo[1,5-a]pyridin-5-yl}-phenyl)-methanone] |
| 100 to 1000 | – | Nc1ccc(-c2cccc3nc(Nc4ccc(OCCN5CCCC5)cc4)nn23)cc1 [XX-184] |
| 1000 to 10000 | – | c1cc(-c2ccncc2)n2nc(Nc3ccc(OCCN4CCCC4)cc3)nc2c1 [XX-219] |

| IC50 [1] [nM] | IC50 [2] [nM] | SMILES |
| --- | --- | --- |
| 100 to 1000 | < 1000 | c1cc(-c2ccc3c(c2)OCCO3)n2nc(Nc3ccc(OCCN4CCCC4)cc3)nc2c1 [XX-018] |
| 100 to 1000 | – | CCN(CC)CC(=O)Nc1ccc(Nc2nc3cccc(-c4ccc5c(c4)OCCO5)n3n2)cc1 [XX-119] |
| ≤ 100 | < 1000 | COc1ccc(-c2cccc3nc(Nc4ccc(OCCN5CCOCC5)cc4)nn23)cc1 [XX-005] |
| 1000 to 10000 | – | Clc1ccccc1COc1cccc(-c2cccc3nc(Nc4ccc(OCCN5CCCC5)cc4)nn23)c1 [XX-339] |
| 1000 to 10000 | – | c1cc(-c2ccc3[nH]ccc3c2)n2nc(Nc3ccc(OCCN4CCCC4)cc3)nc2c1 [XX-281] |
| 1000 to 10000 | – | O=C(Nc1ccc(Cl)cc1)Nc1cccc(-c2cccc3nc(Nc4ccc(OCCN5CCCC5)cc4)nn23)c1 [XX-233] |
| 100 to 1000 | – | c1cc(OCc2ccncc2)cc(-c2cccc3nc(Nc4ccc(OCCN5CCCC5)cc4)nn23)c1 [XX-332] |
| 100 to 1000 | – | c1cc(-c2ccoc2)cc(-c2cccc3nc(Nc4ccc(OCCN5CCCC5)cc4)nn23)c1 [XX-165] |
| ≤ 100 | < 1000 | COc1ccc(-c2nccc3nc(Nc4ccc(C(=O)NCCN(C)C)cc4)nn23)cc1 [YY-004] |
| 100 to 1000 | – | Cc1ccc(-c2cccc3nc(Nc4ccc(OCCCN5CCCCC5)cc4)nn23)cc1F [XX-421] |
| 1000 to 10000 | 1000 to 10000 | COc1ccc(-c2cccc3nc(Nc4ccc(S(N)(=O)=O)cc4)nn23)cc1 [XX-063] |
| 100 to 1000 | – | c1cc(-c2cnn(CCSc3nccs3)c2)n2nc(Nc3ccc(OCCN4CCCC4)cc3)nc2c1 [XX-425] |
| 1000 to 10000 | 1000 to 10000 | O=C(Nc1nc2cccc(-c3ccn[nH]3)n2n1)C1CC1 [WW-053] |
| 100 to 1000 | – | c1cc(-c2ccsc2)n2nc(Nc3ccc(OCCN4CCCC4)cc3)nc2c1 [XX-201] |
| 100 to 1000 | – | c1cc(-c2ccco2)cc(-c2cccc3nc(Nc4ccc(OCCN5CCCC5)cc4)nn23)c1 [XX-168] |
| 100 to 1000 | < 1000 | CN(C)CCOc1ccc(Nc2nc3cccc(-c4ccc5c(c4)OCO5)n3n2)cc1 [XX-048] |
| 1000 to 10000 | – | COc1cc(-c2cccc3nc(Nc4ccc(OCCN5CCCC5)cc4)nn23)cc(OC)c1OC [XX-246] |
| 1000 to 10000 | – | COc1ccc(-c2cccc(-c3cccc4nc(Nc5ccc(OCCN6CCCC6)cc5)nn34)c2)cc1 [XX-468] |
| 100 to 1000 | – | C[C@H](CN(C)C)Oc1ccc(Nc2nc3cccc(-c4ccc5c(c4)OCCO5)n3n2)cc1 [XX-155] |
| ≤ 100 | – | CC[C@H](C)Cn1cc(-c2cccc3nc(Nc4ccc(OCCN5CCCC5)cc4)nn23)cn1 [XX-320] |
| ≤ 100 | 1000 to 10000 | COc1ccc(-c2cccc3nc(Nc4ccc(N5CCOCC5)cc4)nn23)cc1 [XX-024] |
| 100 to 1000 | – | FC(F)(F)Oc1ccc(-c2cccc3nc(Nc4ccc(OCCN5CCCC5)cc4)nn23)cc1 [XX-244] |
